One molecule from patent US8420341B2, “Methods for measuring ADP” (Genewiz Inc., Suzhou, priority 2007, dated 2013) can be followed below.

In this assay the target is PKA (Homo sapiens, UniProt P17612). As to the kind of experiment: PKA kinase reaction, ADP luminescent enzyme-coupled assay. Type of assay: biochemical. The note with it: 5 μM ATP, 30 μM Kemptide, 2.5 nM PKA, 90 minutes at room temperature; FIGS. 4A-4B. The procedure: Assay Procedures 1. Add 10 μl reagent A to 30 μl kinase reaction mixtures and incubate at RT. 2. Add 10 μl reagent B and read luminescence immediately.
At the end of incubation, 10 μl Reagent B were added and luminescence was measured. Each data point represents the average of 3 repeats.

Take `O=S(=O)(NCCNC/C=C/c1ccc(Br)cc1)c1cccc2cnccc12` [H89]: the “luminescence signals (PKA activity) with increasing amounts of inhibitor” value was “decreased luminescence signals in a dose dependent manner”.
